Assay results taken from PubChem BioAssay (NCI).
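A five-concentration, 48-hour dose response in 96-well plates underlies each endpoint, interpolated linearly between surrounding concentrations. The concentration for 50% growth inhibition is given as GI50. TGI marks complete inhibition of growth.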

Legend:
Test in all cases: NCI anticancer screen, dose series, 48 h
[1] = tested on: KM12 colon
[2] = tested on: SK-OV-3 ovarian
[3] = tested on: OVCAR-5 ovarian
[4] = tested on: CCRF-CEM leukemia
[5] = tested on: HOP-92 NSCLC
[6] = tested on: MDA-MB-435
[7] = tested on: T-47D breast
[8] = tested on: OVCAR-3 ovarian
[9] = tested on: NCI-H522 lung
[10] = tested on: SNB-19 CNS
[11] = tested on: MCF7 breast
[12] = tested on: HCT-116 colon
[13] = tested on: SN12C renal
[14] = tested on: SK-MEL-5 melanoma
[15] = tested on: M14 melanoma
[16] = tested on: NCI-H460 lung
[17] = tested on: SK-MEL-28 melanoma
[18] = tested on: SR leukemia
[19] = tested on: EKVX NSCLC
[20] = tested on: HT29 colon
[21] = tested on: SK-MEL-2 melanoma
[22] = tested on: SF-539 CNS
[23] = tested on: HL-60(TB) leukemia
[24] = tested on: 786-0 renal
[25] = tested on: CAKI-1 renal
[26] = tested on: RXF 393 renal
[27] = tested on: NCI/ADR-RES ovarian
[28] = tested on: TK-10 renal
[29] = tested on: NCI-H226 lung
[30] = tested on: HCT-15 colon
[31] = tested on: PC-3 prostate
[32] = tested on: DU-145 prostate
[33] = tested on: NCI-H23 lung
[34] = tested on: IGROV1 ovarian
[35] = tested on: A498 renal
[36] = tested on: UACC-257 melanoma
[37] = tested on: RPMI-8226 leukemia
[38] = tested on: SF-295 CNS
[39] = tested on: U251 CNS
[40] = tested on: OVCAR-8 ovarian
[41] = tested on: UACC-62 melanoma
[42] = tested on: MALME-3M melanoma
[43] = tested on: MOLT-4 leukemia
[44] = tested on: A549 NSCLC
[45] = tested on: LOX IMVI melanoma
[46] = tested on: BT-549 breast
[47] = tested on: SW-620 colon
[48] = tested on: HCC-2998 colon
[49] = tested on: SF-268 CNS
[50] = tested on: HS 578T breast
[51] = tested on: OVCAR-4 ovarian
[52] = tested on: ACHN renal
[53] = tested on: K-562 leukemia
[54] = tested on: HOP-62 NSCLC
[55] = tested on: COLO 205 colon
[56] = tested on: SNB-75 CNS
[57] = tested on: MDA-MB-231 breast

COc1ccc2c(c1)C(=O)c1c-2c(=O)n(CCCCCCC(=O)NO)c2ccccc12
GI50 [1]: 358 nM | GI50 [2]: 300 nM | TGI [2]: 2970 nM | GI50 [3]: 527 nM | TGI [3]: 12300 nM | GI50 [4]: 138 nM | TGI [4]: > 100000 nM | GI50 [5]: 197 nM | TGI [5]: 1240 nM | GI50 [6]: 197 nM | TGI [6]: 2290 nM | GI50 [7]: 94.8 nM | TGI [7]: 526 nM | GI50 [8]: 292 nM | TGI [8]: 2110 nM | GI50 [9]: 82.2 nM | TGI [9]: 1170 nM | GI50 [10]: 616 nM | TGI [10]: 13400 nM | GI50 [11]: 226 nM | TGI [11]: 10200 nM | GI50 [12]: 66.4 nM | TGI [12]: 1150 nM | GI50 [13]: 1360 nM | TGI [13]: 88200 nM | GI50 [14]: 184 nM | TGI [14]: 1080 nM | GI50 [15]: 407 nM | TGI [15]: 13900 nM | GI50 [16]: 269 nM | TGI [16]: > 100000 nM | GI50 [17]: 478 nM | TGI [17]: 3120 nM | GI50 [18]: 99.9 nM | TGI [18]: > 100000 nM | GI50 [19]: 700 nM | TGI [19]: > 100000 nM | GI50 [20]: 282 nM | TGI [20]: 2750 nM | GI50 [21]: 1230 nM | TGI [21]: 5900 nM | GI50 [22]: 480 nM | TGI [22]: 28700 nM | GI50 [23]: 325 nM | TGI [23]: > 100000 nM | GI50 [24]: 1320 nM | TGI [24]: 11500 nM | GI50 [25]: 720 nM | TGI [25]: 3720 nM | GI50 [26]: 224 nM | TGI [26]: 1770 nM | GI50 [27]: 94.1 nM | TGI [27]: 2290 nM | GI50 [28]: 74.3 nM | TGI [28]: 1680 nM | GI50 [29]: 1180 nM | TGI [29]: > 100000 nM | GI50 [30]: 602 nM | TGI [30]: > 100000 nM | GI50 [31]: 491 nM | TGI [31]: > 100000 nM | GI50 [32]: 428 nM | TGI [32]: 10800 nM | GI50 [33]: 296 nM | TGI [33]: 1810 nM | GI50 [34]: 732 nM | TGI [34]: 12200 nM | GI50 [35]: 245 nM | TGI [35]: 985 nM | GI50 [36]: 223 nM | TGI [36]: 2310 nM | GI50 [37]: 259 nM | TGI [37]: > 100000 nM | GI50 [38]: 733 nM | TGI [38]: 4850 nM | GI50 [39]: 352 nM | TGI [39]: 2010 nM | GI50 [40]: 329 nM | TGI [40]: 25200 nM | GI50 [41]: 145 nM | TGI [41]: 1380 nM | GI50 [42]: 202 nM | TGI [42]: 60900 nM | GI50 [43]: 139 nM | TGI [43]: > 100000 nM | GI50 [44]: 416 nM | TGI [44]: 3190 nM | GI50 [45]: 236 nM | TGI [45]: 1130 nM | GI50 [46]: 2710 nM | TGI [46]: 42600 nM | GI50 [47]: 130 nM | TGI [47]: 695 nM | GI50 [48]: 398 nM | TGI [48]: 1840 nM | GI50 [49]: 1060 nM | TGI [49]: 9800 nM | GI50 [50]: 160 nM | TGI [50]: 4470 nM | GI50 [51]: 1110 nM | TGI [51]: 17500 nM | GI50 [52]: 226 nM | TGI [52]: 1700 nM | GI50 [53]: 260 nM | TGI [53]: > 100000 nM | GI50 [54]: 98.7 nM | TGI [54]: 2710 nM | GI50 [55]: 304 nM | TGI [55]: 1710 nM | GI50 [56]: 93 nM | TGI [56]: 13800 nM | GI50 [57]: 715 nM | TGI [57]: 26000 nM
